From patent publication US10537563B2, “Methods for treating ocular disease using inhibitors of CSF-1R” (NOVARTIS AG, priority 2016, dated 2020)

What was measured:
VEGF = assay: Interaction with VEGF versus CSF-1 receptor signaling; conditions: at concentrations where the signaling of the CSF-1 receptor is strongly or completely inhibited
[1] = tested on: choroidal neovascularization; assay: Laser-induced choroidal neovascularization model, CNV area; type: in vivo, mouse; conditions: oral daily, 30, 100 or 200 mg/kg, dose dependent; tissues harvested day 7
Procedure: To investigate the effects of CSF-1R inhibition on ocular angiogenesis and inflammation, Compound (Ia) was assessed in a rodent model of laser-induced choroidal neovascularization (methods below) for effect on blood vessel growth and cellular infiltration after a laser injury. Compound (Ia) was assessed either as a monotherapy or in combination with a suboptimal dose of a VEGF antibody.
(§1) In one experiment, Compound (Ia) or vehicle was dosed orally at 30, 100 or 200 mg/kg starting about 1 hour before laser and continued administration daily until the day before tissue harvest.
(§2) In a second experiment, mice were dosed daily with 50 mg/kg of Compound (Ia) and with i.p. injections of a mouse anti-VEGF antibody at a dose of 0.3 mg/kg at day 0, 2 and 4. Other groups of mice in the experiment were dosed with monotherapy of Compound (Ia) or the anti-VEGF antibody at higher doses.
Mouse pupils were dilated with one drop (˜40 μL) of 1% cyclopentolate. Just before anesthesia, pupil dilation was maximized with an additional drop of phenylephrine (usually 10% but occasionally 2.5% depending upon availability). […]
Analysis of neovascularization was completed on tissues harvested 7 days after laser photocoagulation. […] CNV area was quantified using a semi-automated analysis program (Axiovision software version 4.5, Carl Zeiss Microscopy) that outlined the fluorescent blood vessels. […]

retinal F4/80+ cells = assay: Cellular infiltration assay in laser CNV model, retinal F4/80+ macrophages; type: in vivo, mouse
Procedure: as §1, §2
(§3) Cellular infiltration into the retina, the PEC or the CNV lesion was assessed after laser application. Eyes were fixed with 4% Paraformaldehyde for ˜90 minutes. After fixation, whole eyes were dissected into the retina and PEC. […]
(§4) Iba1+ cells in the PEC peripheral to the CNV lesion were counted using a different semi-automatic MatLab code. […] The operator is then presented with masked, randomized images and allowed the functionality to remove miscellaneous fluorescence (false positive) and add missed cells (false negative) to the analysis. Confluent microglia cells and CNV lesions were excluded from the quantification analysis. In a study, each assessed condition consisted of 10 eyes from 5 mice and would typically yield 10 data points. […] F4/80+ cells in the retina were counted using a similar semi-automatic MatLab code and followed the same procedure as above. […]

subretinal Iba1+ cells = assay: Cellular infiltration assay in laser CNV model, subretinal Iba1+ microglia; type: in vivo, mouse
Procedure: as §1, §2, §3, §4

[2] = tested on: macrophages in areas around the ciliary body; assay: Macrophages around the ciliary body in CX3CR1-GFP reporter mice; type: in vivo, mouse; conditions: salt of Compound (Ia), oral 200 mg/kg daily for 14 days
Procedure: To investigate the effects of CSF-1R inhibition on inflammation, Compound (Ia) was assessed in CX3CR1-GFP reporter mice (which report on macrophage and microglia). The presence of macrophages in areas around the ciliary body in the front of the eye (but not in the cornea) was examined and confirmed by anti-GFP immunohistochemistry staining (see panels (a) and (b) in FIG. 4). The arrow-indicated dots are the positive stained macrophage cells).
In this experiment, mice was treated with a salt of Compound (Ia) orally at 200 mg/kg daily for 14 days and immediately examined for the presence of macrophages (see panels (c) and (d) in FIG. 4).

`CNC(=O)c1cc(Oc2ccc3nc(N[C@@H]4CCCC[C@H]4O)sc3c2)ccn1` [Compound (Ia), 4-((2-(((1R,2R)-2-hydroxycyclohexyl)amino)benzo[d]thiazol-6-yl)oxy)-N-methylpicolinamide] was tested, and the “interaction with VEGF” value (VEGF) was “not to interact strongly”, the “reduction in CNV area compared to vehicle” value [1] was 75% and the “reduction in retinal F4/80+ cells (macrophages)” value (retinal F4/80+ cells; 200 mg/kg oral) was 83-84%. The “macrophages in the retina” value (retinal F4/80+ cells; 50 and 200 mg/kg) was “significantly reduced”, the “reduction in subretinal Iba1+ cells (microglia)” value (subretinal Iba1+ cells; 200 mg/kg oral) was 66-99% and the “microglia in the subretinal space” value (subretinal Iba1+ cells; 50 and 200 mg/kg) was “significantly reduced”. The “macrophages in areas around the ciliary body, day 14” value ([2]; day 14) was “depleted”, the “macrophages in areas around the ciliary body, day 21” value ([2]; day 21) was “started to return” and the “macrophages in areas around the ciliary body, day 44” value ([2]; day 44) was “almost back to steady state”.

With `CNC(=O)c1cc(Oc2ccc3nc(N[C@H]4CCCC[C@@H]4O)sc3c2)ccn1` [Compound (Ib), 4-((2-(((1S,2S)-2-hydroxycyclohexyl)amino)benzo[d]thiazol-6-yl)oxy)-N-methylpicolinamide] the “interaction with VEGF” value (VEGF) was “not to interact strongly”.
